{"source": "patent US8153633B2", "about": "“Phthalazine compounds, compositions and methods of use” (Amgen Inc., priority 2007, dated 2012)", "key": {"[1]": {"tested_on": "Gli1 expression (Smoothened signaling)", "experiment": "Gli1 expression in mouse skin after depilation and oral compound dosing (quantitative PCR relative to RGS)", "assay_type": "in vivo", "conditions": "five days after depilation, six hours after administration", "description": "Paladini et al. (2005) J Invest Dermatol 125:638-646. For this work, the mice were deplilated using wax strips (Sally Hansen, Del Laboratories, Inc, Uniondale, N.Y.). Five days after depilation, mice were dosed orally with compound or vehicle. Six hours after compound administration, animals were euthanized and skin samples were collected. RNA was purified from the skin samples using a mirVana miRNA Isolation kit (Ambion, Austin, Tex.). cDNA was prepared from the RNA, and Gli1 expression levels were determined by real-time, quantitative PCR relative to the RGS reference gene."}, "[2]": {"tested_on": "medulloblastomas from Ptch+/−p53−/− mice", "experiment": "Mouse medulloblastoma allograft model, antitumor activity in vivo", "conditions": "10 mg/kg, one dose per day, after 6 days of treatment; tumors of average size 200 mm^3 at start", "description": "Briefly, medulloblastomas from Ptch+/−p53−/− mice were subcutaneously implanted into immunocompromised mice, and subsequent passages of these tumor allografts were used for compound testing. For compound studies, animals bearing tumors with an average size of 200 mm^3 were treated with vehicle or 10 mg/kg compound 23 on a schedule of one dose per day for a total of 6 days."}}, "data": [{"smiles": "C[C@H]1CN(c2nnc(-c3ccccc3)c3ccccc23)CCN1C(=O)c1ccccc1", "note": "[Compound 5, (S)-(2-methyl-4-(4-phenylphthalazin-1-yl)piperazin-1-yl)(phenyl)-methanone]", "values": [{"measurement": "[Gli1/RGS ratio compound]/[Gli1/RGS ratio vehicle]", "setting": "[1]; 100 mg/kg oral", "value": 0.41}]}, {"smiles": "C[C@@H]1CN(C(=O)c2ccccc2)CCN1c1nnc(-c2ccc(C(F)(F)F)cc2)c2ccccc12", "note": "[Compound 23, (R)-(3-methyl-4-(4-(4-(trifluoromethyl)-phenyl)-phthalazin-1-yl)piperazin-1-yl)(phenyl)-methanone]", "values": [{"measurement": "[Gli1/RGS ratio compound]/[Gli1/RGS ratio vehicle]", "setting": "[1]; 50 mg/kg oral", "value": 0.33}, {"measurement": "reduction in tumor size relative to vehicle control", "setting": "[2]", "value": "> 99", "unit": "%"}]}]}
